Test results taken from patent publication US20070281857A1, “FORMIC ACID AS AN HERBICIDE” (MARRONE ORGANIC INNOVATIONS, priority 2006, published 2007).
Read-outs that look alike come from different tables or passages of the source.

How the values were obtained:
[1] = tested on: radish (Raphanus sativus); conditions: spray
Protocol: (§1) The herbicidal effect of formic acid was compared with that of acetic acid in a greenhouse study using radish (Raphanus sativus) and wheat (Triticum aestivum) as test plants. Both formic acid and acetic acid were diluted in water at 1, 3, and 5%, and deionized water was used as a control. Tween 20 was added to each of the solutions at a rate 0.04% for use as a surfactant. Solutions were applied to plants using a small handheld sprayer. Plants were evaluated at 24- and 72-hours after treatment for the % control.

[2] = tested on: wheat (Triticum aestivum); conditions: spray
Protocol: as §1

[3] = tested on: annual weeds tested including foxtail, lambsquarters, and pigweed; conditions: found by the USDA; cited from earlier work
[4] = tested on: Canada thistle and other perennials; conditions: cited from earlier work
[5] = tested on: dicotyledonous radish plants (Raphanus sativas); conditions: one day post-treatment
Excerpt: (§2) In order to determine whether formic acid could be used as a foliar herbicide it was applied as a foliar spray to the leaves of dicotyledonous radish plants (Raphanus sativas) and monocotyledonous wheat plants (Triticum aestivum). Solutions were applied to plants using a small handheld sprayer.
(§3) Formic acid and acetic acid solutions at three concentrations (1%, 3%, 5%) were applied and water was used as a check. A barrier was inserted between the rows of plants on either side of the row being treated to avoid drift of sprays into neighboring rows. Plants were evaluated at 24-hour and 72-hour intervals for the number of surviving plants and a percentage was derived from this number in comparison with the number of plants originally present in the row.

[6] = tested on: monocotyledonous wheat plants (Triticum aestivum); conditions: foliar spray 5%; one day post-treatment
Excerpt: as §2, §3

In the case of `CC(=O)O` [Acetic acid], the “% control of the dicot weeds (radish)” value ([1]; 1%) is reported as 51%, the “% control of the dicot weeds (radish)” value ([1]; 3%) is reported as 71% and the “control of radish plants compared with formic acid (100%)” value ([1]; 5% dilution) is reported as “comparable”. The “% control of wheat seedlings” value ([2]; 5%, 72-h) was 28%, the “% control of wheat seedlings” value ([2]; lower concentrations (1 and 3%), after 72-h) was 5-14% and the “share of annual weeds tested against which effective” value [3] was 80%. For the same compound, the control of perennials [4] was “does not control the root system”, the “foliage surviving, radish” value ([5]; foliar spray 1%) was 50% and the “foliage surviving, radish” value ([5]; foliar spray 3%) was 30%. For the same compound, the “killing of foliage of radish plants” value ([5]; foliar spray 5%) was “killed all foliage” and the wheat plants killed [6] was 30%.
